# Data from patent US10517889B2, “Modulators of SMAD7 expression” (Ionis Pharmaceuticals, Inc., priority 2017, dated 2019).
# Strand notation (5' to 3'): a small letter for the sugar, then the base; units joined by * are phosphorothioate-linked, units joined directly phosphodiester-linked; [ ] holds rarer units or linkages, { } end groups; capitals alone tell only the bases. k = constrained ethyl (cEt); [5mC] = 5-methylcytosine; d = 2'-deoxy (DNA)
# Tested on: human SMAD7 mRNA
# Experiment: Antisense inhibition of human SMAD7 mRNA expression in Hep3B cells by 3-10-3 cEt gapmers, 10,000 nM, electroporation (Example 2)
# Format: cell-based
# Details: Hep3B cells, 10,000 nM antisense oligonucleotide, electroporation, approximately 24 hours, RT-PCR primer probe set RTS5062, relative to untreated control cells
# Summary of the method: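 Hep3B cells (20,000 per well) were electroporated with 10,000 nM 16-mer 3-10-3 cEt gapmer (phosphorothioate, 5-methylcytosine). After about 24 h, SMAD7 mRNA was quantified by qRT-PCR with primer probe set RTS5062, normalised to RIBOGREEN total RNA, and expressed as percent inhibition versus untreated cells.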
row,Substance,% Inhibition [%]
1,800029 (k[5mC]*k[5mC]*kT*dG*dA*dA*dT*d[5mC]*dG*dG*dG*d[5mC]*d[5mC]*k[5mC]*kA*k[5mC]; antisense) [compound 800029],0
2,800030 (kA*kA*kA*d[5mC]*dA*d[5mC]*dA*dG*dT*dT*d[5mC]*d[5mC]*d[5mC]*kT*kG*kA; antisense) [compound 800030],0
3,800032 (kG*kA*kA*dT*dT*d[5mC]*d[5mC]*d[5mC]*d[5mC]*dG*d[5mC]*d[5mC]*dA*kT*kT*kT; antisense) [compound 800032],0
4,800033 (k[5mC]*kA*k[5mC]*dT*dA*d[5mC]*dA*dG*dA*dG*dA*dT*dT*k[5mC]*k[5mC]*k[5mC]; antisense) [compound 800033],52
5,800034 (k[5mC]*k[5mC]*kG*d[5mC]*dA*d[5mC]*dG*dA*d[5mC]*dA*dT*d[5mC]*d[5mC]*k[5mC]*k[5mC]*k[5mC]; antisense) [compound 800034],47
6,800035 (k[5mC]*kA*kA*dA*dG*dG*d[5mC]*d[5mC]*d[5mC]*d[5mC]*dT*d[5mC]*dG*kA*kA*k[5mC]; antisense) [compound 800035],34
7,800036 (kG*kT*kT*dA*dG*dG*dA*d[5mC]*dA*dG*d[5mC]*dT*d[5mC]*k[5mC]*kA*kG; antisense) [compound 800036],38
8,800037 (k[5mC]*kA*k[5mC]*d[5mC]*dA*dG*d[5mC]*dA*dG*d[5mC]*d[5mC]*dT*d[5mC]*kT*kG*kT; antisense) [compound 800037],0
9,800038 (kT*kG*k[5mC]*dT*d[5mC]*d[5mC]*dT*d[5mC]*d[5mC]*d[5mC]*dT*d[5mC]*dG*k[5mC]*kT*kG; antisense) [compound 800038],2
10,800049 (antisense kA*kA*k[5mC]*dA*dA*dA*d[5mC]*d[5mC]*dT*dG*dG*d[5mC]*d[5mC]*kT*kG*kG) [compound 800049],7
11,800050 (antisense kG*k[5mC]*kT*dT*dA*dT*dT*dT*dT*d[5mC]*d[5mC]*d[5mC]*dA*kA*kT*kT) [compound 800050],10
12,800051 (antisense k[5mC]*kA*kG*d[5mC]*dA*d[5mC]*dA*dT*d[5mC]*d[5mC]*dA*d[5mC]*d[5mC]*k[5mC]*kT*kT) [compound 800051],20
13,800052 (antisense k[5mC]*k[5mC]*k[5mC]*dT*d[5mC]*dT*dT*d[5mC]*d[5mC]*dG*dG*dG*dA*kG*kG*k[5mC]) [compound 800052],0
14,800053 (antisense k[5mC]*kT*kA*d[5mC]*dA*d[5mC]*d[5mC]*dA*dA*dA*dG*dA*d[5mC]*k[5mC]*kT*kG) [compound 800053],63
15,800054 (antisense kG*k[5mC]*kT*dA*d[5mC]*dA*d[5mC]*d[5mC]*dA*dA*dA*dG*dA*k[5mC]*k[5mC]*kT) [compound 800054],62
16,800055 (antisense kA*kT*kA*dA*dA*d[5mC]*dT*dT*dG*dT*dG*dA*dG*k[5mC]*kG*k[5mC]) [compound 800055],8
17,800056 (antisense kT*kG*k[5mC]*dT*dA*dA*dT*dA*dA*dA*d[5mC]*dT*dT*kG*kT*kG) [compound 800056],7
18,800057 (antisense kT*kT*k[5mC]*dA*d[5mC]*dT*dT*dG*dT*dT*dT*d[5mC]*dT*kG*k[5mC]*kA) [compound 800057],46
19,800058 (antisense kT*k[5mC]*kA*dT*d[5mC]*dA*dG*dG*d[5mC]*dA*dT*dT*d[5mC]*kA*k[5mC]*kT) [compound 800058],51
20,800069 (antisense k[5mC]*kA*kT*dG*dG*d[5mC]*dG*dG*dA*dA*dG*dA*dT*kG*kG*kG) [compound 800069],25
21,800070 (antisense k[5mC]*k[5mC]*kA*dT*dG*dG*d[5mC]*dG*dG*dA*dA*dG*dA*kT*kG*kG) [compound 800070],9
22,800071 (antisense kT*kG*kT*dA*dT*dT*dT*dG*dT*dT*dA*dA*d[5mC]*kA*kA*kA) [compound 800071],2

# Same assay, conditions: Hep3B cells, electroporation with 10,000 nM antisense oligonucleotide, approximately 24 hours, SMAD7 mRNA by RT-PCR (RTS5062), relative to untreated control cells
row,Substance,% Inhibition [%]
1,800019 (kG*kG*k[5mC]*dA*dA*dA*dA*d[5mC]*dT*d[5mC]*dA*d[5mC]*dA*kG*kT*k[5mC]; antisense) [compound 800019],61
2,800020 (kA*kA*k[5mC]*d[5mC]*dT*d[5mC]*dT*dG*dA*dA*dG*dG*d[5mC]*kA*kA*kA; antisense) [compound 800020],21
3,800021 (kG*kG*k[5mC]*d[5mC]*dT*d[5mC]*dT*d[5mC]*dG*d[5mC]*dT*dG*dA*kT*kA*kG; antisense) [compound 800021],0
4,800022 (kG*kG*kA*dA*dG*dA*dG*d[5mC]*d[5mC]*dT*dT*dG*dG*k[5mC]*k[5mC]*kT; antisense) [compound 800022],30
5,800023 (kA*kG*kG*dA*dA*dG*dA*dG*d[5mC]*d[5mC]*dT*dT*dG*kG*k[5mC]*k[5mC]; antisense) [compound 800023],0
6,800024 (k[5mC]*kA*kA*dG*dG*dA*d[5mC]*dT*dA*dA*dG*dG*dA*kA*kG*kA; antisense) [compound 800024],18
7,800026 (kT*k[5mC]*kA*dG*dT*dA*d[5mC]*dA*dA*dG*dG*dA*d[5mC]*kT*kA*kA; antisense) [compound 800026],50
8,800027 (k[5mC]*kG*k[5mC]*dT*dT*dT*dG*d[5mC]*dT*d[5mC]*d[5mC]*d[5mC]*dA*kG*kG*kG; antisense) [compound 800027],0
9,800028 (k[5mC]*kA*k[5mC]*dA*dG*d[5mC]*d[5mC]*d[5mC]*dA*d[5mC]*dA*d[5mC]*dG*kA*kG*kT; antisense) [compound 800028],10
10,800039 (kG*kG*kT*dT*dA*dA*dT*dG*dG*d[5mC]*d[5mC]*d[5mC]*dA*kG*k[5mC]*k[5mC]; antisense) [compound 800039],27
11,800040 (k[5mC]*kG*k[5mC]*d[5mC]*dA*dG*d[5mC]*dA*dA*dT*dG*dT*dG*k[5mC]*kT*kG; antisense) [compound 800040],15
12,800041 (kG*k[5mC]*k[5mC]*dA*d[5mC]*d[5mC]*dT*dA*dG*dG*d[5mC]*dA*dA*kG*kG*kG; antisense) [compound 800041],0
13,800042 (kT*kG*kT*d[5mC]*dA*dG*d[5mC]*d[5mC]*dA*d[5mC]*d[5mC]*dT*dA*kG*kG*k[5mC]; antisense) [compound 800042],0
14,800043 (kT*kG*k[5mC]*d[5mC]*dA*dG*dG*d[5mC]*d[5mC]*dT*dG*dT*d[5mC]*kA*kG*k[5mC]; antisense) [compound 800043],31
15,800044 (k[5mC]*k[5mC]*kT*dG*dA*dG*dA*dT*d[5mC]*dG*dA*dG*dG*kT*kG*k[5mC]; antisense) [compound 800044],18
16,800045 (kG*kA*kG*dG*dA*dG*d[5mC]*dA*dA*dG*dG*dG*dA*kG*kT*kG; antisense) [compound 800045],59
17,800046 (kG*kG*k[5mC]*d[5mC]*dA*dA*d[5mC]*dA*dG*dG*dA*dG*dG*kA*kG*kG; antisense) [compound 800046],42
18,800047 (antisense kA*k[5mC]*k[5mC]*d[5mC]*dA*d[5mC]*dT*dG*dA*dA*dA*d[5mC]*d[5mC]*kT*kG*kG) [compound 800047],28
19,800059 (antisense kA*kA*kA*dA*d[5mC]*dA*dA*dG*dA*d[5mC]*dA*dG*dG*kG*kA*k[5mC]) [compound 800059],31
20,800060 (antisense k[5mC]*k[5mC]*k[5mC]*d[5mC]*dA*dA*dA*dA*dG*d[5mC]*dT*d[5mC]*d[5mC]*kA*k[5mC]*kA) [compound 800060],5
21,800061 (antisense k[5mC]*k[5mC]*k[5mC]*dA*dA*dA*dT*dG*d[5mC]*d[5mC]*dT*dG*d[5mC]*k[5mC]*k[5mC]*k[5mC]) [compound 800061],44
22,800062 (antisense k[5mC]*k[5mC]*k[5mC]*d[5mC]*dA*dA*dG*d[5mC]*dT*dG*dG*d[5mC]*d[5mC]*kT*kT*k[5mC]) [compound 800062],25
23,800063 (antisense kG*k[5mC]*k[5mC]*dA*dT*dA*d[5mC]*dA*dA*dA*dT*dG*dT*kG*k[5mC]*kA) [compound 800063],0
24,800064 (antisense kA*kT*kG*dG*dA*dG*dG*dT*dG*d[5mC]*d[5mC]*d[5mC]*dG*kT*k[5mC]*kA) [compound 800064],0
25,800065 (antisense kT*kT*kA*dA*dG*dT*dA*dG*d[5mC]*dA*dG*d[5mC]*d[5mC]*kA*kG*kT) [compound 800065],55
26,800067 (antisense kA*kG*kG*dA*d[5mC]*d[5mC]*dT*dG*dG*dG*dA*dA*d[5mC]*k[5mC]*k[5mC]*kA) [compound 800067],51
27,800068 (antisense kA*k[5mC]*kA*d[5mC]*dT*dA*dA*d[5mC]*dT*dG*dG*d[5mC]*dT*k[5mC]*k[5mC]*kA) [compound 800068],34
